In ChEMBL document CHEMBL1201862, “PubChem BioAssay data set” (2004):
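Cells were grown in 96-well plates and exposed to each compound for 48 hours at five concentrations; endpoints were interpolated linearly between bracketing concentrations, or set to the highest concentration if not reached. At the GI50, growth is halved.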 Activity calls are given as the source filed them. Rule as the data show it: active = GI50 up to about 1.1 µM and inactive = higher.

Legend:
Test in all cases: DTP human tumour cell line panel, 48 h
[1] = test system: LXFL 529
[2] = test system: HOP-62
[3] = test system: DMS-114
[4] = test system: TK-10
[5] = test system: HT-29
[6] = test system: SNB-78
[7] = test system: MDA-MB-435
[8] = test system: Malme-3M
[9] = test system: HL-60
[10] = test system: HOP-18
[11] = test system: OVCAR-5
[12] = test system: A549
[13] = test system: KM12
[14] = test system: ACHN
[15] = test system: SF-539
[16] = test system: K562
[17] = test system: SK-MEL-2
[18] = test system: OVCAR-8
[19] = test system: PC-3
[20] = test system: OVCAR-4
[21] = test system: SF-295
[22] = test system: NCI-H460
[23] = test system: BT-549
[24] = test system: SK-MEL-28
[25] = test system: DMS-273
[26] = test system: EKVX
[27] = test system: SK-MEL-5
[28] = test system: MCF7
[29] = test system: MDA-N
[30] = test system: XF498
[31] = test system: HCT-116
[32] = test system: A498
[33] = test system: UACC-257
[34] = test system: UACC-62
[35] = test system: UO-31
[36] = test system: NCI-H226
[37] = test system: OVCAR-3
[38] = test system: SK-OV-3
[39] = test system: DLD-1
[40] = test system: NCI-H522
[41] = test system: NCI-H23
[42] = test system: M19-MEL
[43] = test system: RPMI-8226
[44] = test system: SNB-75
[45] = test system: RXF 393
[46] = test system: SN12C
[47] = test system: HOP-92
[48] = test system: IGROV-1
[49] = test system: T47D
[50] = test system: U-251
[51] = test system: COLO 205
[52] = test system: HCT-15
[53] = test system: SF-268
[54] = test system: SW-620
[55] = test system: M14
[56] = test system: KM-20L2
[57] = test system: CAKI-1
[58] = test system: CCRF-CEM
[59] = test system: DU-145
[60] = test system: 786-0
[61] = test system: SNB-19
[62] = test system: MOLT-4
[63] = test system: SR
[64] = test system: LOX IMVI
[65] = test system: HCC 2998
[66] = test system: NCI/ADR-RES
[67] = test system: Hs-578T
[68] = test system: RXF 631
[69] = test system: MDA-MB-231

Measured: GI50

NC1=C(Cl)C(=O)c2ccccc2C1=O
inactive: [1] 12.6 µM | [2] 11.4 µM | [3] 3.89 µM | [4] 22.2 µM | [5] 4.99 µM | [6] 25.4 µM | [8] 1.38 µM | [9] 3.55 µM | [10] 9.66 µM | [11] 10.3 µM | [12] 2.93 µM | [13] 8.05 µM | [14] 9.27 µM | [15] 8.24 µM | [16] 8.11 µM | [17] 7.08 µM | [18] 8.34 µM | [19] 1.79 µM | [20] 7.08 µM | [21] 6.87 µM | [22] 3.43 µM | [23] 2.47 µM | [24] 4.67 µM | [25] 5.82 µM | [26] 14.7 µM | [28] 2.06 µM | [29] 1.63 µM | [30] 11.2 µM | [31] 3.77 µM | [32] 19.9 µM | [33] 2.57 µM | [35] 13.7 µM | [36] 7.35 µM | [37] 2.45 µM | [38] 2.52 µM | [39] 8.75 µM | [40] 5.22 µM | [41] 1.77 µM | [43] 18.4 µM | [44] 11.3 µM | [45] 7.67 µM | [46] 5.04 µM | [47] 14.6 µM | [48] 9.82 µM | [49] 2.87 µM | [50] 4.34 µM | [51] 11.3 µM | [53] 11.2 µM | [54] 5.42 µM | [56] 9.12 µM | [57] 17.3 µM | [58] 5.15 µM | [59] 1.87 µM | [60] 7.4 µM | [61] 9.46 µM | [62] 5.7 µM | [63] 4.32 µM | [64] 2.28 µM | [65] 10.6 µM
3.46 µM: [52]
active: [7] 0.8 µM | [27] 0.834 µM | [34] 1.08 µM | [42] 0.518 µM | [55] 0.893 µM

CC1=C2C(=O)[C@H]3[C@@H](CC=C4C[C@@H](O)CC[C@@]43C)[C@@H]2CC[C@]12O[C@@H]1C[C@H](C)CN[C@H]1[C@H]2C [JERVINE]
> 50.8 µM: [52]
inactive: [1] 18.4 µM | [2] > 39.5 µM | [3] 18.9 µM | [4] > 37.2 µM | [5] > 55.2 µM | [6] 19.2 µM | [7] > 100 µM | [8] > 50.4 µM | [9] > 44.2 µM | [10] 17.1 µM | [11] > 100 µM | [12] > 43 µM | [13] > 50.4 µM | [14] > 41.3 µM | [15] > 47.9 µM | [16] > 61.9 µM | [17] > 50.7 µM | [18] > 47.1 µM | [19] > 100 µM | [20] > 44.5 µM | [21] > 44.1 µM | [22] > 44.8 µM | [66] > 100 µM | [23] > 100 µM | [24] > 49.3 µM | [25] 22 µM | [26] > 45.9 µM | [27] > 39.8 µM | [28] > 100 µM | [67] > 100 µM | [68] 23.2 µM | [29] > 100 µM | [31] > 46 µM | [32] > 41.2 µM | [33] > 49.3 µM | [69] > 100 µM | [34] > 53.7 µM | [35] > 40.1 µM | [36] > 43.8 µM | [37] > 40.6 µM | [38] > 40.6 µM | [39] 29.9 µM | [40] > 42.2 µM | [41] > 42.3 µM | [42] 29.4 µM | [43] > 100 µM | [44] > 36.4 µM | [45] > 38.5 µM | [46] > 43.4 µM | [47] 11.9 µM | [48] > 54.7 µM | [49] > 100 µM | [50] > 41.4 µM | [51] > 75.5 µM | [53] > 46.6 µM | [54] > 49.4 µM | [55] > 41.7 µM | [56] 28.9 µM | [57] > 40.8 µM | [58] > 63.4 µM | [59] > 100 µM | [60] > 41.9 µM | [61] > 41.7 µM | [62] > 82.4 µM | [64] > 41.1 µM | [65] > 54 µM

COc1ccc(C2=NC(CO)[C@H](c3ccccc3)O2)cc1OC (some centres undefined)
inactive: [1] > 100 µM | [2] > 100 µM | [3] > 100 µM | [5] > 100 µM | [8] > 100 µM | [9] > 100 µM | [11] > 100 µM | [12] > 100 µM | [13] > 100 µM | [14] > 100 µM | [15] > 100 µM | [16] > 100 µM | [17] > 100 µM | [18] > 100 µM | [20] > 100 µM | [21] > 100 µM | [22] > 100 µM | [25] > 100 µM | [27] > 100 µM | [68] > 100 µM | [30] > 100 µM | [31] > 100 µM | [32] > 100 µM | [33] > 100 µM | [34] 53.6 µM | [35] > 100 µM | [36] > 100 µM | [37] > 100 µM | [38] 96.4 µM | [39] 78 µM | [40] > 100 µM | [42] > 100 µM | [44] > 100 µM | [46] > 100 µM | [47] > 100 µM | [48] > 100 µM | [51] > 100 µM | [53] > 100 µM | [54] > 100 µM | [55] > 100 µM | [56] > 100 µM | [57] > 100 µM | [58] > 100 µM | [60] > 100 µM | [61] > 100 µM | [62] > 100 µM | [64] > 100 µM | [65] > 100 µM
> 100 µM: [52]

N#CC(C(=O)CCC(=O)Nc1ccc(Cl)c(Cl)c1)c1ccc(Cl)cc1 (centres undefined)
inactive: [1] 21.3 µM | [2] > 100 µM | [3] 75.3 µM | [4] > 100 µM | [5] > 100 µM | [6] > 100 µM | [8] > 100 µM | [9] 83.9 µM | [10] > 100 µM | [11] 23.9 µM | [12] 84.9 µM | [13] 47.5 µM | [14] 17.4 µM | [15] > 100 µM | [16] 14.6 µM | [17] 22.9 µM | [18] > 100 µM | [20] > 100 µM | [21] 69.5 µM | [22] > 100 µM | [24] > 100 µM | [25] 39.3 µM | [26] > 100 µM | [27] 65.6 µM | [68] 90.6 µM | [31] > 100 µM | [32] > 100 µM | [33] > 100 µM | [34] 11.6 µM | [35] 75.2 µM | [36] > 100 µM | [37] > 100 µM | [39] 55.5 µM | [41] > 100 µM | [42] 82.2 µM | [43] 48.2 µM | [44] 51.1 µM | [45] > 100 µM | [46] > 100 µM | [47] 80.9 µM | [48] 80 µM | [50] > 100 µM | [53] > 100 µM | [54] > 100 µM | [55] 51.4 µM | [56] 15 µM | [57] 37.3 µM | [60] > 100 µM | [61] > 100 µM | [62] 53.7 µM | [64] > 100 µM | [65] > 100 µM
17.1 µM: [52]
